Assay: in vitro
Conditions: human, hela cells, % viability
Work on COc1ccc(OCCn2c(C(C)O)nc3ccccc32)cc1 (stereo not shown) [CBK269905] yielded a viability at 28.5 h, 10 µM of 93.2%.
Molecule NC1=Nc2nc3ccccc3n2C(c2ccc3c(c2)OCO3)N1 (stereo not shown) [CBK269906] has a viability at 28.5 h, 10 µM of 85.7%.
Cn1c(=O)[nH]c(=O)c2c1nc(CN1CCOCC1)n2CCc1ccccc1 [CBK269910] showed a viability at 28.5 h, 10 µM of 88%.
For CC(C(=O)NCCN1CCOCC1)N1c2cccc3cccc(c23)S1(=O)=O (stereo not shown) [CBK269911], the viability at 28.5 h, 10 µM was 91.2%.
Molecule Cc1cccnc1NC(=O)C1CCCN1S(=O)(=O)c1ccc(Cl)cc1 (stereo not shown) [CBK269914] has a viability at 28.5 h, 10 µM of 83.2%.
Molecule O=C(NCCc1cccs1)Nc1ccccc1 [CBK269917] has a viability at 28.5 h, 10 µM of 88.7%.
For O=c1[nH]c(CN2CCN(c3ncccn3)CC2)nc2ccccc12 [CBK269918], the viability at 28.5 h, 10 µM was 98.3%.
In the case of CC(=O)Nc1ccc(NC(=O)CC2SCCNC2=O)cc1 (stereo not shown) [CBK269921], the viability at 28.5 h, 10 µM is reported as 89.6%.
For CCOC(=O)CC1C(=O)NCCN1C/C=C/c1ccccc1 (stereo not shown) [CBK269922], the viability at 28.5 h, 10 µM was 90.7%.
Molecule COc1ccc(C(=O)Nc2ccccc2C(=O)N2CCOCC2)cc1Br [CBK269923] has a viability at 28.5 h, 10 µM of 85.4%.
For CCOc1c(OC)cc(C#N)cc1C(=O)O [CBK269925], the viability at 28.5 h, 10 µM was 87.3%.
In the case of CCOc1ccc(N2C(=O)CC(N3CCN(CCc4ccncc4)CC3)C2=O)cc1 (stereo not shown) [CBK269930], the viability at 28.5 h, 10 µM is reported as 106%.
Work on N#Cc1ccc(NC(=O)CSc2cnn[nH]2)cc1 [CBK269931] yielded a viability at 28.5 h, 10 µM of 87.7%.
For Cc1nn(Cc2cccc3ccccc23)c(C)c1NC(=O)c1ccccn1 [CBK269936], the viability at 28.5 h, 10 µM was 105%.
COc1ccc(Cl)cc1NS(=O)(=O)N1CCOCC1 [CBK269937] gave a viability at 28.5 h, 10 µM of 93%.
Work on O=C(NCCCn1ccnc1)c1cccnc1-c1nc2ccccc2s1 [CBK269939] yielded a viability at 28.5 h, 10 µM of 90.5%.
Molecule CC(C)(Oc1ccc(Cl)cc1)C(=O)Nc1ccc(CN2CCOCC2)cc1 [CBK269940] has a viability at 28.5 h, 10 µM of 89.1%.
Molecule O=C(O)CCCn1cc(NC(=O)c2c(F)cccc2F)cn1 [CBK269941] has a viability at 28.5 h, 10 µM of 86.6%.
For CC(Oc1ccc(S(=O)(=O)N2CCN(C)CC2)cc1)C(=O)NC1CCCCC1 (stereo not shown) [CBK269943], the viability at 28.5 h, 10 µM was 97.9%.
In the case of O=C(NCCCN1CCOCC1)C1CCCN1S(=O)(=O)c1ccc(Cl)cc1 (stereo not shown) [CBK269944], the viability at 28.5 h, 10 µM is reported as 92.1%.
Molecule Cc1cc(NS(=O)(=O)N2CCCCC2)no1 [CBK269947] has a viability at 28.5 h, 10 µM of 100%.
O=C(Nc1ccccc1N1CCN(C(=O)c2ccccc2)CC1)c1cccnc1 [CBK269948] showed a viability at 28.5 h, 10 µM of 100%.
In the case of COc1ccccc1-c1nnc(SCc2cccc(C(=O)O)c2)[nH]1 [CBK269952], the viability at 28.5 h, 10 µM is reported as 85.3%.
O=C(O)CC1C(=O)NCCN1Cc1cccc(C(F)(F)F)c1 (stereo not shown) [CBK269958] gave a viability at 28.5 h, 10 µM of 91.1%.
For Cc1cccc(OC(C)C(=O)Nc2ccccc2C(=O)N2CCCCC2)c1 (stereo not shown) [CBK269960], the viability at 28.5 h, 10 µM was 85.4%.
c1ccc(-c2nnc(CSc3nnc(-c4ccncc4)[nH]3)o2)cc1 [CBK269962] showed a viability at 28.5 h, 10 µM of 94.9%.
In the case of O=C(Nc1cccnc1)c1ccc(NC(=O)C2OCCc3ccccc32)cc1 (stereo not shown) [CBK269963], the viability at 28.5 h, 10 µM is reported as 86.6%.
In the case of NC(CCc1nc2ccccc2[nH]1)c1nc2ccccc2[nH]1 (stereo not shown) [CBK269970], the viability at 28.5 h, 10 µM is reported as 96.2%.
COc1ccccc1NC(=O)Cn1nc(-c2ccc(C)cc2)ccc1=O [CBK269974] gave a viability at 28.5 h, 10 µM of 93.1%.
Molecule O=C(COc1ccc2c(c1)OCO2)N1CCN(Cc2ccccc2)CC1 [CBK269977] has a viability at 28.5 h, 10 µM of 84.8%.
CC1(C)CC(=O)C2=C(C1)N=C(Nc1nc3ccccc3o1)NC2c1ccccn1 (stereo not shown) [CBK269978] showed a viability at 28.5 h, 10 µM of 88.8%.
O=C(O)Cc1ccc(NS(=O)(=O)c2ccc(F)cc2)cc1 [CBK269981] showed a viability at 28.5 h, 10 µM of 94.2%.
Nc1cc(=O)[nH]c(=O)n1CCc1ccccc1 [CBK269984] gave a viability at 28.5 h, 10 µM of 86%.
In the case of COc1ccc(CN2CCNC(=O)C2CC(=O)O)cc1OC (stereo not shown) [CBK269991], the viability at 28.5 h, 10 µM is reported as 102%.
Molecule COc1ccc(C)c(NC(=O)NCCc2c[nH]cn2)c1 [CBK269992] has a viability at 28.5 h, 10 µM of 88.8%.
With O=C(Nc1ccc(Cl)cc1C(=O)O)c1ccccc1 [CBK269993] the viability at 28.5 h, 10 µM was 87.5%.
With CCOc1ccc(Cl)cc1S(=O)(=O)NCCO [CBK269996] the viability at 28.5 h, 10 µM was 94%.
COc1ccc(Cl)cc1S(=O)(=O)N1CCC(C(=O)NCCO)CC1 [CBK270002] showed a viability at 28.5 h, 10 µM of 84%.
Work on c1ccc(-c2nnc(SCc3nnc(-c4ccccc4)o3)[nH]2)cc1 [CBK270003] yielded a viability at 28.5 h, 10 µM of 104%.
Work on CCOc1ccccc1NC(=O)CSc1c[nH]nn1 [CBK270005] yielded a viability at 28.5 h, 10 µM of 83.3%.
O=C(Nc1ccccc1N1CCOCC1)c1cccc(OCc2ccccc2)c1 [CBK270011] gave a viability at 28.5 h, 10 µM of 104%.
Work on COc1cc(NC(=O)CC2NC3CCCCC3NC2=O)cc(OC)c1OC (stereo not shown) [CBK270012] yielded a viability at 28.5 h, 10 µM of 84.5%.
Molecule COc1cc(CNCCO)ccc1OCc1cccc(Cl)c1 [CBK270013C] has a viability at 28.5 h, 10 µM of 94.5%.
With O=C(Nc1ccc(S(=O)(=O)NCCN2CCOCC2)cc1)N1CCCC1 [CBK270015] the viability at 28.5 h, 10 µM was 89.8%.
Molecule O=C(Nc1ccc(Cl)c(C(=O)O)c1)c1cccc(-n2cnnc2)c1 [CBK270016] has a viability at 28.5 h, 10 µM of 86.5%.
Molecule Cc1nnc(SCc2cc(=O)[nH]c(N3CCN(c4ccccc4F)CC3)n2)s1 [CBK270017] has a viability at 28.5 h, 10 µM of 97.8%.
Molecule COc1ccc(C(=O)NCCCc2nc3ccccc3[nH]2)cc1OC [CBK270018] has a viability at 28.5 h, 10 µM of 101%.
For COc1cccc(NC(=O)NCCc2ccncc2)c1 [CBK270022], the viability at 28.5 h, 10 µM was 90.3%.
Molecule CC1(C)CC(=O)C2=C(C1)NC(Nc1nc3ccccc3s1)=NC2c1cccnc1 (stereo not shown) [CBK270025] has a viability at 28.5 h, 10 µM of 99.4%.
Molecule Cc1cc(S(=O)(=O)N2CCCC2)ccc1OCC(=O)NCc1ccccn1 [CBK270027] has a viability at 28.5 h, 10 µM of 96%.
Cc1ccc(NC(=O)CN2C(=O)c3ccccc3C2=O)c(O)c1 [CBK270028] showed a viability at 28.5 h, 10 µM of 88.2%.
For Nc1nc(/C=C/c2cccs2)nc(-c2ccccc2O)n1 [CBK270033], the viability at 28.5 h, 10 µM was 105%.
Molecule O=C(Nc1ccc(N2CCN(C(=O)c3ccco3)CC2)cc1)c1cccnc1 [CBK270034] has a viability at 28.5 h, 10 µM of 102%.
In the case of Cn1c(=O)[nH]c(=O)c2c1nc(CN1CCOCC1)n2Cc1ccc(F)cc1 [CBK270040], the viability at 28.5 h, 10 µM is reported as 99.2%.
COc1ccc(CC(=O)NCc2nc(-c3ccc(OC)cc3)no2)cc1 [CBK270043] showed a viability at 28.5 h, 10 µM of 92%.
OCCN1CCN(c2nnc(-c3ccccc3)cc2-c2ccccc2)CC1 [CBK270045] showed a viability at 28.5 h, 10 µM of 86.2%.
In the case of O=C(c1cccnc1)N1CCN(C2CC(=O)N(c3ccc(F)cc3)C2=O)CC1 (stereo not shown) [CBK270049], the viability at 28.5 h, 10 µM is reported as 91.5%.
In the case of Ic1cnn(Cc2nc(-c3ccc4c(c3)OCO4)no2)c1 [CBK270050], the viability at 28.5 h, 10 µM is reported as 106%.
O=C(Nc1ccc(C(=O)O)c(O)c1)c1ccc(Br)o1 [CBK270053] gave a viability at 28.5 h, 10 µM of 87%.
For CN1CCN(C(=O)c2ccccc2NC(=O)c2ccc(C(C)(C)C)cc2)CC1 [CBK270054], the viability at 28.5 h, 10 µM was 93.4%.
O=C(CCn1cnc2ccccc2c1=O)Nc1ccccc1C(F)(F)F [CBK270056] gave a viability at 28.5 h, 10 µM of 101%.
With Nc1nnc(SCc2nc(=O)c3ccccc3[nH]2)s1 [CBK270059] the viability at 28.5 h, 10 µM was 92.2%.
c1ccc(-c2nnc(-c3ccncc3)nc2-c2ccccc2)cc1 [CBK270061] gave a viability at 28.5 h, 10 µM of 81.1%.
O=C(O)COc1ccc(NC(=O)C2CCCO2)cc1 (stereo not shown) [CBK270063] gave a viability at 28.5 h, 10 µM of 102%.
Work on CCc1ccc(Nc2nc(N)nc(CN3CCN(c4ccccn4)CC3)n2)cc1 [CBK270064] yielded a viability at 28.5 h, 10 µM of 102%.
Work on CCOC(=O)CC1C(=O)NCCN1Cc1ccoc1 (stereo not shown) [CBK270066] yielded a viability at 28.5 h, 10 µM of 92.4%.

Same assay, conditions: human, hela cells, % viability, bulk resorufin, single well
For CSc1nnc(C(N)Cc2c[nH]c3ccccc23)o1 (stereo not shown) [CBK269950C], the viability at 28.5 h, 10 µM was 89.8%.

Source: article PMC12040169 (PLOS Biology, 2025)
